This note sets out measurements from the supplement of paper PMC5579334.

± gives the standard deviation of the averaged measurements.

One assay relates to HSC1. Briefly: relative IC50 (inflection point of fitted dose-response curve, CellTox-Green cytotoxicity, 72 h; top asymptote may be below 50%); higher = less potent. The procedure, abridged: (§1)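 MPNST cell lines and primary human Schwann cells were incubated 72 h at 37 °C in 384-well plates holding five 10-fold compound dilutions. CellTox-Green was added before seeding at a final 1:1000 dilution and reported fluorescence from DNA released by disrupted cells. Signals were scaled to vehicle and positive-control wells, and cultures failing plate quality control were dropped. Drug sensitivity score and relative IC50 come from four-parameter logistic fits, with IC50 censored at the top concentration.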

Assay [1] deals with HSC2. The assay is described as above. The procedure, abridged:
as §1

The test system of assay [2] is HS-PSS. Described as above. The gist of the method: as §1
The subject of assay [3] is ST8814. Described as above. The gist of the method: as §1
Assay [4] relates to STS26T. The assay is described as above. The gist of the method: as §1
Assay [5] relates to HS-Sch-2. Kind of assay: relative IC50 (inflection point of fitted dose-response curve, CellTiter-Glo viability, 72 h; top asymptote may be below 50% inhibition); higher = less potent. The gist of the method:
(§2)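 MPNST cell lines and primary human Schwann cells (750–1000 cells per well) went into 384-well plates preprinted with each compound at five concentrations in 10-fold steps. Plates were incubated 72 h at 37 °C, 5% CO2. Viability was read as CellTiter-Glo ATP luminescence, scaled between vehicle and positive-control wells, with duplicates averaged where present. Percent inhibition is at the top concentration; drug sensitivity score and relative IC50 (censored at top concentration) come from four-parameter logistic fits.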
Background: In ATP-based viability assays light output follows the ATP content of the culture.

Assay [6] concerns HSC2. Described as above. The gist of the method:
as §2

In assay [7] the test system is YST-1. The assay is described as above. The procedure, abridged:
as §2

For assay [8], the system named is HS-PSS. The description is as above. The procedure, abridged: as §2
The subject of assay [9] is ST8814. The description is as above. The gist of the method:
as §2

The subject of assay [10] is STS26T. Described as above. The gist of the method:
as §2

Assay [11] relates to HSC2 (primary human Schwann cells). Kind of assay: drug sensitivity score (DSS, CellTox-Green cytotoxicity, 72 h) (DSS (dimensionless)); higher = more cytotoxic; extreme values may be limits of the assay. The procedure, abridged:
as §1

Assay [12] deals with HS-PSS. The assay is described as above. The gist of the method: as §1
Assay [13] deals with ST8814. The assay is described as above. The gist of the method:
as §1

Assay [14] has as its system S1507-2. The assay is described as above. The gist of the method:
as §1

Assay [15] relates to STS26T. The assay is described as above. The procedure, abridged:
as §1

Assay [16] concerns HSC1 (primary human Schwann cells). Described as above. The procedure, abridged: as §1
Assay [17] deals with HSC2 (primary human Schwann cells). Briefly: drug sensitivity score (DSS, CellTiter-Glo viability, 72 h) (DSS (dimensionless)); higher = more sensitive; extreme values may be limits of the assay. The procedure, abridged: as §2
Assay [18] concerns HS-Sch-2. The assay is described as above. The procedure, abridged: as §2
In assay [19] the test system is YST-1. The assay is described as above. The gist of the method:
as §2

In assay [20] the test system is HS-PSS. The description is as above. The gist of the method:
as §2

In assay [21] the test system is ST8814. Described as above. The gist of the method: as §2
Assay [22] concerns S462. The assay is described as above. The gist of the method:
as §2

The subject of assay [23] is S1507-2. The assay is described as above. The gist of the method:
as §2

In assay [24] the test system is STS26T. The description is as above. The gist of the method: as §2
Assay [25] deals with HSC1 (primary human Schwann cells). The assay is described as above. The procedure, abridged:
as §2

Assay [26] deals with HSC2 (primary human Schwann cells). Briefly: % inhibition of CellTiter-Glo viability at highest tested concentration (72 h), relative to DMSO and benzethonium chloride controls; higher = more inhibition. The procedure, abridged:
as §2

Assay [27] has as its system HS-Sch-2. Described as above. The procedure, abridged: as §2
Assay [28] relates to YST-1. The assay is described as above. The procedure, abridged: as §2
For assay [29], the system named is HS-PSS. The assay is described as above. The procedure, abridged: as §2
Assay [30] concerns ST8814. The description is as above. The procedure, abridged: as §2
For assay [31], the system named is S462. The description is as above. The gist of the method: as §2
The subject of assay [32] is S1507-2. The assay is described as above. The gist of the method: as §2
The test system of assay [33] is STS26T. Described as above. The procedure, abridged:
as §2

In assay [34] the test system is HSC1 (primary human Schwann cells). The description is as above. The procedure, abridged:
as §2

What is called relative IC50 is the concentration halfway between the upper and lower plateau of the fitted curve. As for `CCc1c(C(=O)C(N)=O)c2c(OCC(=O)O)cccc2n1Cc1ccccc1` [Varespladib], the “relative IC50” value in the assay on HSC1, in the assay with HSC2 [1], in the assay on HS-PSS [2], in the assay with ST8814 [3], with STS26T [4] and with HS-Sch-2 [5] was more than 10 µM each time. For the same compound, the “relative IC50” value with HSC2 [6], in the assay on YST-1 [7], in the assay with HS-PSS [8], in the assay with ST8814 [9] and with STS26T [10] was more than 10 µM each time.
Usually % inhibition stands for the drop in the measured response relative to a control, in per cent. Take `CC[C@@H]1C(=O)N(C)c2cnc(Nc3ccc(C(=O)N[C@H]4CC[C@H](N5CCN(CC6CC6)CC5)CC4)cc3OC)nc2N1C(C)C` [Volasertib] (max concentration tested 1000 nM): the drug sensitivity score was 19.2 in assay [11]; 0 in the assay with HS-PSS [12]; 13.9 with ST8814 [13]; 13.2 ± 1.2 with S1507-2 [14]; 30.8 in the assay on STS26T [15]; 12.8 in [16]. Moreover, the drug sensitivity score in assay [17] stood at 14.8; in the assay on HS-Sch-2 [18], 19.5; in the assay on YST-1 [19] it was 15; in the assay with HS-PSS [20], 8.74; in the assay on ST8814 [21], 14.4; with S462 [22], 21.2 ± 0.31. The drug sensitivity score turned out to be 17.138 ± 0.0087 in the assay on S1507-2 [23], 23.5 with STS26T [24] and 10.6 in assay [25]. For the same compound, the “% inhibition” value in [26] is 79.3%; with HS-Sch-2 [27] it was 59.3%; in the assay on YST-1 [28], 55.3%; in the assay with HS-PSS [29] it was 59.5%; in the assay on ST8814 [30], 80.6%; in the assay with S462 [31], 95.95 ± 0.59%. Further, the “% inhibition” value in the assay on S1507-2 [32] stood at 79.2 ± 8.9%; in the assay on STS26T [33], 78.3%; in assay [34] it was 53%.
With `O=C(CCCCCCC(=O)Nc1ccccc1)NO` [Vorinostat] (max concentration tested 10000 nM), the drug sensitivity score in assay [11] was 4.21; with HS-PSS [12] it was 2.31; with ST8814 [13] it was 5.36; in the assay with S1507-2 [14], 7.03 ± 1.4; in the assay on STS26T [15], 3.21; in assay [16], 2.83. For the same compound, the drug sensitivity score in assay [17] was 8.25; in the assay on HS-Sch-2 [18] it was 8.6; in the assay with YST-1 [19] it was 13; in the assay on HS-PSS [20], 4.89; in the assay on ST8814 [21] it was 8.9; in the assay with S462 [22] it was 7.84 ± 1.1. Besides, the drug sensitivity score in the assay on S1507-2 [23] turned out to be 9.06 ± 1.5; with STS26T [24] it was 6.18; in assay [25], 9.34. Besides, the “% inhibition” value amounted to 88.6% in [26]; 99.6% in the assay with HS-Sch-2 [27]; 100% in the assay with YST-1 [28]; 79.2% in the assay on HS-PSS [29]; 101% with ST8814 [30]; 101.1 ± 0.69% with S462 [31]. The “% inhibition” value with S1507-2 [32] worked out at 103.1 ± 0.86%; in the assay on STS26T [33], 83.9%; in [34] it was 90.6%.
Consider `Oc1nc(-c2ccc(C(F)(F)F)cc2)nc2c1CSCC2` [XAV-939] (max concentration tested 10000 nM), for which the drug sensitivity score in [11] came to 0; in the assay on HS-PSS [12] it was 0; with ST8814 [13] it was 0; in the assay with S1507-2 [14], 1.83 ± 2.6; in the assay with STS26T [15] it was 0; in assay [16], 0. Moreover, the drug sensitivity score in [17] came out at 4.89; in the assay with HS-Sch-2 [18] it was 0; in the assay on YST-1 [19], 2.41; with HS-PSS [20], 1.55; with ST8814 [21] it was 0; in the assay on S462 [22] it was 0. For the same compound, the drug sensitivity score in the assay with S1507-2 [23] came to 2.76 ± 0.27; in the assay with STS26T [24], 0.217; in assay [25], 6.05. The “% inhibition” value in [26] worked out at 27.6%; with HS-Sch-2 [27], 7.73%; with YST-1 [28] it was 23.1%; in the assay with HS-PSS [29] it was 23%; in the assay on ST8814 [30], 0.935%; in the assay on S462 [31], 6.97 ± 4%. Besides, the “% inhibition” value worked out at 33.8 ± 7.3% with S1507-2 [32], 16.5% with STS26T [33] and 37% in assay [34].
Take `FC(F)c1nc2ccccc2n1-c1nc(N2CCOCC2)nc(N2CCOCC2)n1` [ZSTK474] (max concentration tested 10000 nM): the drug sensitivity score in assay [11] turned out to be 0.497; in the assay with HS-PSS [12], 0; with ST8814 [13], 0; with S1507-2 [14], 0.69 ± 0.011; in the assay on STS26T [15], 0; in assay [16], 0. Also, the drug sensitivity score was 9.9 in assay [17]; 4.18 with HS-Sch-2 [18]; 15.1 in the assay on YST-1 [19]; 3.54 in the assay on HS-PSS [20]; 8.94 in the assay on ST8814 [21]; 8 ± 0.68 with S462 [22]. The values for the drug sensitivity score (in the assay on S1507-2 [23]; in the assay with STS26T [24]; in assay [25]) were 13.5 ± 2.1, 14.6 and 8.75, respectively. The “% inhibition” value was determined as 77.2% in assay [26]; 38.2% with HS-Sch-2 [27]; 81.3% with YST-1 [28]; 30.6% in the assay with HS-PSS [29]; 69.7% with ST8814 [30]; 59.4 ± 5% in the assay with S462 [31]. Besides, the “% inhibition” value is 76.7 ± 9% in the assay on S1507-2 [32], 80% with STS26T [33] and 75.7% in assay [34].
